Results published in ChEMBL document CHEMBL5380834, “Design, Synthesis, and Biological Evaluation of Androgen Receptor (AR) Antagonist-Heat Shock Protein 90 (Hsp90) Inhibitor Conjugates for Targeted Therapy of Castration-Resistant Prostate Cancer” (J Med Chem, 2023).
Calls of active or inactive are those of the source. No cut-off for these calls is given here.

Legend:
CWR22R [1] = assay: Cytotoxicity against human 22Rv1 cells assessed as inhibition of cell growth incubated for 5 days in presence of AR agonist, R1881 by WST-1 assay; format: functional, cell-based; conditions: 22Rv1, 120 h
LNCaP [2] = assay: Cytotoxicity against AR-positive human LNCaP cells assessed as inhibition of cell growth incubated for 5 days in presence of AR agonist, R1881 in charcoal stripped serum by WST-1 assay; format: functional, cell-based; conditions: 120 h
[3] = tested on: Androgen receptor (Homo sapiens), P10275 [UNDEFINED MUTATION]; assay: Induction of AR-V7 degradation in human 22Rv1 cells measured upto 24 hrs by Western blot analysis; format: cell-based; conditions: dose 1000.0 nM
Androgen receptor (Homo sapiens), P10275 [UNDEFINED MUTATION], sequence (P10275 whole entry, looked up, stated change not applied): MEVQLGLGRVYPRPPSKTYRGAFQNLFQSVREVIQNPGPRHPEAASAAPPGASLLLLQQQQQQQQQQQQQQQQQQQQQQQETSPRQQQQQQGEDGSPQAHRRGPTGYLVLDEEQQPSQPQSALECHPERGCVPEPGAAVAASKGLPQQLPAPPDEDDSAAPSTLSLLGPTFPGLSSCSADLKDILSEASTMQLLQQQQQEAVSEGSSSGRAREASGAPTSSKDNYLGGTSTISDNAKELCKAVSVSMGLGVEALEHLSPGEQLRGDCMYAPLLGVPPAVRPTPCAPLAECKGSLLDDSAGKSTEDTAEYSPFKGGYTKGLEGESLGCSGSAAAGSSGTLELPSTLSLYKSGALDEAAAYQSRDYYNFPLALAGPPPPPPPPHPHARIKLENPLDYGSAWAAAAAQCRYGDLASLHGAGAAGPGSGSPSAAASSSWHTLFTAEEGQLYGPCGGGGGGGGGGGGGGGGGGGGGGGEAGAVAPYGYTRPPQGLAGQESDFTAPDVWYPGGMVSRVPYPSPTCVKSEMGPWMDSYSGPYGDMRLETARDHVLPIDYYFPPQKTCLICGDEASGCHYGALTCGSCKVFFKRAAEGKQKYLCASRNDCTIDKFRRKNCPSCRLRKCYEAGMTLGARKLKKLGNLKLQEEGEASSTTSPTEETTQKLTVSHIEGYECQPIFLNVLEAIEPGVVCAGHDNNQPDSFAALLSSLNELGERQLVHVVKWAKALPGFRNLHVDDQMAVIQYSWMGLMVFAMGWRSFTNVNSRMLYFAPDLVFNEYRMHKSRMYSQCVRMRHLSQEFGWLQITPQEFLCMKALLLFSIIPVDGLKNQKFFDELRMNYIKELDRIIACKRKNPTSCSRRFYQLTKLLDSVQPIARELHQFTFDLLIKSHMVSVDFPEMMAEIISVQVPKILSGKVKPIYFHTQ

[4] = Drug uptake in human 22Rv1 cells assessed as increase in fluorescence at 1 uM incubated for 1 hr by DAPI staining based confocal microscopy; format: ADME, cell-based; conditions: cwr22r
CWR22R [5] = assay: Antitumor activity against human 22Rv1 cells xenografted in BALB/c nude mouse assessed as downregulation of AR-FL level at 2.5 mg/kg, ip administered once every 4th day for 3 weeks; format: functional, organism-based
[6] = Drug uptake in human RWPE-1 cells assessed as increase in fluorescence at 1 uM incubated for 1 hr by DAPI staining based confocal microscopy; format: ADME, cell-based; conditions: rwpe-1, 1 h
[7] = Drug uptake in human HEK293T cells assessed as increase in fluorescence at 1 uM incubated for 1 hr by DAPI staining based confocal microscopy; format: ADME, cell-based; conditions: hek-293t
CWR22R [8] = assay: Antitumor activity against human 22Rv1 cells xenografted in BALB/c nude mouse assessed as downregulation of AR-V7 level at 2.5 mg/kg, ip administered once every 4th day for 3 weeks; format: functional, organism-based
[9] = tested on: Androgen receptor (Homo sapiens), P10275 [UNDEFINED MUTATION]; assay: Induction of AR-V7 degradation in human 22Rv1 cells at 100 nM by Western blot analysis; format: cell-based; conditions: time <= 48.0 hrs, TDE = time-dependent effect
CWR22R [10] = assay: Antitumor activity against human 22Rv1 cells xenografted in BALB/c nude mouse assessed as reduction in tumor size at 5 mg/kg, ip administered once every 4th day for 3 weeks; format: functional, organism-based
LNCaP [11] = assay: Induction of apoptosis in human LNCaP cells assessed as increase in caspase-3 level at 1 uM measured after 48 hrs by Western blot analysis; format: functional, cell-based
CWR22R [12] = assay: Induction of apoptosis in human 22Rv1 cells assessed as increase in caspase-3 level at 1 uM measured after 48 hrs by Western blot analysis; format: functional, cell-based
CWR22R [13] = assay: Induction of apoptosis in human 22Rv1 cells assessed as increase in PARP level at 1 uM measured after 48 hrs by Western blot analysis; format: functional, cell-based
LNCaP [14] = assay: Induction of apoptosis in human LNCaP cells assessed as increase in PARP level at 1 uM measured after 48 hrs by Western blot analysis; format: functional, cell-based
CWR22R [15] = assay: Antitumor activity against human 22Rv1 cells xenografted in BALB/c nude mouse assessed as reduction in tumor growth at 5 mg/kg, ip administered once every 4th day for 3 weeks; format: functional, organism-based
[16] = Drug uptake in liver of nude mouse xenografted with human 22Rv1 cells assessed as increase in fluorescence signal at 0.5 mg/kg, iv measured after 2 hrs by fluorescence imaging analysis; format: ADME, organism-based, CWR22R; conditions: in vivo
[17] = Drug uptake in HEK293T cells assessed as drug internalization at 1 uM incubated for 1 hr by DAPI staining based confocal microscopy; format: ADME, cell-based; conditions: human, hek-293t
[18] = Drug uptake in Lung of nude mouse xenografted with human 22Rv1 cells assessed as increase in fluorescence signal at 0.5 mg/kg, iv measured after 2 hrs by fluorescence imaging analysis; format: ADME, organism-based, CWR22R; conditions: in vivo
[19] = Drug uptake in human 22Rv1 cells assessed as drug internalization at 1 uM incubated for 1 hr by DAPI staining based confocal microscopy; format: ADME, cell-based; conditions: cwr22r
[20] = Drug uptake in tumor of nude mouse xenografted with human 22Rv1 cells assessed as increase in fluorescence signal at 0.5 mg/kg, iv measured after 2 hrs by fluorescence imaging analysis; format: ADME, organism-based, Neoplasm, CWR22R; conditions: in vivo
[21] = Drug uptake in kidney of nude mouse xenografted with human 22Rv1 cells assessed as increase in fluorescence signal at 0.5 mg/kg, iv measured after 2 hrs by fluorescence imaging analysis; format: ADME, organism-based, CWR22R; conditions: in vivo
[22] = Drug uptake in human RWPE-1 cells assessed as drug internalization at 1 uM incubated for 1 hr by DAPI staining based confocal microscopy; format: ADME, cell-based; conditions: rwpe-1, 1 h

Molecule `CC(C)c1cc(-c2n[nH]c(=O)n2-c2ccc(CN3CCN(C(=O)CCCCCNC(=O)c4ccc(C(=O)N[C@H]5CC[C@H](Oc6ccc(C#N)c(Cl)c6)CC5)cc4)CC3)cc2)c(O)cc1O` has an IC50 (CWR22R [1]) of over 1000 nM and an IC50 (LNCaP [2]) of over 1000 nM.

In the case of `CC(C)c1cc(-c2n[nH]c(=O)n2-c2ccc(CN3CCN(C)CC3)cc2)c(O)cc1O`, the Activity [3] is reported as “Dose-Dependent Effect”, the Drug uptake [4] is reported as “Not Active” and the IC50 (LNCaP [2]) is reported as 107 nM. The Activity (CWR22R [5]) was “inactive”, the Drug uptake [6] was “Not Active” and the Drug uptake [7] was “Not Active”. The Activity (CWR22R [8]) was “inactive” and the Activity [9] was “Tde”.

In the case of `CC(C)c1cc(-c2n[nH]c(=O)n2-c2ccc(CN3CCN(CC4CCN(c5ncc(C(=O)N[C@H]6CC[C@H](Oc7ccc(C#N)c(Cl)c7)CC6)cn5)CC4)CC3)cc2)c(O)cc1O`, the IC50 (CWR22R [1]) is reported as 34.3 nM, the IC50 (LNCaP [2]) is reported as 73.8 nM and the Activity (CWR22R [10]) is reported as “Active”.

For `CC(C)c1cc(-c2n[nH]c(=O)n2-c2ccc(CN3CCN(C(=O)CCCNC(=O)c4ccc(C(=O)N[C@H]5CC[C@H](Oc6ccc(C#N)c(Cl)c6)CC5)cc4)CC3)cc2)c(O)cc1O`, the IC50 (CWR22R [1]) was over 1000 nM and the IC50 (LNCaP [2]) was over 1000 nM.

Molecule `CC(C)c1cc(-c2n[nH]c(=O)n2-c2ccc(CN3CCN(CC4CCN(c5ncc(C(=O)N[C@H]6CC[C@H](Oc7ccc(C#N)c(C(F)(F)F)c7)CC6)cn5)CC4)CC3)cc2)c(O)cc1O` has an IC50 (CWR22R [1]) of 89.9 nM and an IC50 (LNCaP [2]) of 267 nM.

For `N#Cc1ccc(O[C@H]2CC[C@H](NC(=O)c3cncnc3)CC2)cc1Cl`, the Activity (LNCaP [11]) was “inactive”, the Activity (CWR22R [12]) was “inactive” and the Activity (CWR22R [13]) was “inactive”. The IC50 (LNCaP [2]) was 153 nM and the Activity (LNCaP [14]) was “inactive”.

With `CC(C)c1cc(-c2n[nH]c(=O)n2-c2ccc(CN3CCN(CC4CCN(c5ncc(C(=O)N[C@H]6C(C)(C)[C@H](Oc7ccc(C#N)c(Cl)c7)C6(C)C)cn5)CC4)CC3)cc2)c(O)cc1O` the IC50 (CWR22R [1]) was 212 nM and the IC50 (LNCaP [2]) was 188 nM.

Work on `CC(C)c1cc(-c2n[nH]c(=O)n2-c2ccc(CN3CCN(CC4CCN(C(=O)c5ccc(C(=O)N[C@H]6CC[C@H](Oc7ccc(C#N)c(Cl)c7)CC6)cc5)CC4)CC3)cc2)c(O)cc1O` yielded an IC50 (CWR22R [1]) of 65.5 nM and an IC50 (LNCaP [2]) of 112 nM.

For `CC(C)c1cc(-c2n[nH]c(=O)n2-c2ccc(CN3CCN(C(=O)CCCCCCNC(=O)c4ccc(C(=O)N[C@H]5CC[C@H](Oc6ccc(C#N)c(Cl)c6)CC5)cc4)CC3)cc2)c(O)cc1O`, the IC50 (CWR22R [1]) was over 1000 nM and the IC50 (LNCaP [2]) was over 1000 nM.

For `COc1cc(OC)c(C(C)C)cc1-c1nn(C)c(=O)n1-c1ccc(CN2CCN(CC3CCN(CC4CCN(c5ncc(C(=O)N[C@H]6CC[C@H](Oc7ccc(C#N)c(Cl)c7)CC6)cn5)CC4)CC3)CC2)cc1`, the Activity (CWR22R [15]) was “Active”, the IC50 (CWR22R [1]) was over 1000 nM and the IC50 (LNCaP [2]) was over 1000 nM. The Activity [9] was “Tde”.

For `N#Cc1ccc(O[C@H]2CC[C@H](NC(=O)c3cccnn3)CC2)cc1Cl`, the Activity (LNCaP [11]) was “inactive”, the Activity (CWR22R [12]) was “inactive” and the Activity (CWR22R [13]) was “inactive”. For the same molecule, the IC50 (LNCaP [2]) was 336 nM and the Activity (LNCaP [14]) was “inactive”.

In the case of `CC(C)c1cc(-c2n[nH]c(=O)n2-c2ccc(CN3CCN(C(=O)CCCCCN4/C(=C/C=C/C=C/C5=[N+](C)c6ccccc6C5(C)C)C(C)(C)c5ccccc54)CC3)cc2)c(O)cc1O`, the Drug uptake [16] is reported as “Not Active”, the Drug uptake [17] is reported as “Not Active” and the Drug uptake [18] is reported as “Not Active”. For the same molecule, the Drug uptake [19] was “Active”, the Drug uptake [20] was “Active” and the Drug uptake [21] was “Not Active”. The Drug uptake [22] was “Not Active”.

With `CC(C)c1cc(-c2n[nH]c(=O)n2-c2ccc(CN3CCN(CC4CCN(c5ccc(C(=O)N[C@H]6CC[C@H](Oc7ccc(C#N)c(Cl)c7)CC6)cn5)CC4)CC3)cc2)c(O)cc1O` the IC50 (CWR22R [1]) was 45.9 nM and the IC50 (LNCaP [2]) was 110 nM.
